Results: patent US5162328A, “N-[3-[2-(1H-imidazol-1-yl)ethoxy]phenyl]-4-(2-thienyl)-2-pyrimidinamine and pharmacologically acceptable salts” (American Cyanamid Company, priority 1991, dated 1992)
“And” between values parts separate entries of the source, which are not always exact repeats. Equal values may be shown once.

Assays:
[1] = tested on: immunologically stimulated human basophils; experiment: Inhibition of histamine release from immunologically stimulated human basophils; format: cell-based; conditions: Homo sapiens
From the text: The bronchospasm of allergic asthma is a consequence of the release of mediators, such as histamine and slow-reacting substances from mast cells. The role of mediator release in the induction of an asthmatic attack has been fully reviewed and documented; see […]. and Austen, K. F., Bronchial Asthma Mechanisms and Therapeutics, E. B. Weiss, Editor, Little, Brown and Company, Boston, 163, (1976); Lichtenstein, L. M., Asthma-Physiology, Immunopharmacology and Treatment, Second International Symposium, L. M. Lichtenstein and K. F. Austen, Editors, Academic Press, New York, 51, (1979); and Bell, S. C., et al., Annular Reports in Medicinal Chemistry, 14, 51, H. J. Hess, Editor, Academic Press, New York, (1979). The novel compounds of this invention have been tested by the procedure of Lichtenstein, L. M. and Osler, A. G., J. Exp. […] Dissolve 140.3 g of sodium chloride, 7.45 g of Trizma-Tris Pre-Set, Reagent Grade, pH 7.6 at 25° C. (Sigma Chemical Co.) in sufficient water to give a final volume of 2 liters. (Sigma chemical Co.) (30 mg/ml) Made to 0.075M and 0.5M respectively, with calcium chloride dihydrate and magnesium chloride hexahydrate. A 10 ml portion of 10× Tris Buffer and 1.0 ml of human albumin are diluted to 100 ml with water. A 10 ml portion of 10× Tris Buffer, 1.0 ml of human albumin, 0.8 ml of calcium stock and 0.2 ml of magnesium stock are diluted to 100 ml with water. Behring Diagnostics (Generally used at 10 μg protein/ml final concentration). Strength 1:100 (w:v) allergenic extract, Hollister-Stier Labs. Generally this is diluted 1:1000 to 1:10,000 (considering the vial as stock). Interdermal solutions or intramuscular preparations for hyposensitization, Hollister-Stier Labs. The final concentrations used are on the order of 1 PNU/ml. Using four 20 ml heparinized tubes, […] of blood are withdrawn from subjects with known histamine release to anti-IgE, ragweed antigen or other specific allergen. These 80 ml of blood are mixed with 20 ml of saline containing 0.6 g of dextrose and 1.2 g of dextran. The blood is allowed to sediment at room temperature in two 50 ml polycarbonate centrifuge tubes until a sharp interface develops between the red cells and plasma (60-90 minutes). The plasma, containing the leukocytes, (top) layer from each tube, is withdrawn by pipet and transferred to 50 ml polycarbonate tubes. The plasma is centrifuged for 8 minutes at 110× G at 4° C. The supernatant is carefully poured off as completely as possible and the cell button is resuspended in 2-3 ml of Tris-A buffer using a siliconized Pasteur pipet. The resuspension is accomplished by drawing the liquid gently in an out of the pipet, with the tip below the liquid until an even suspension of cells is obtained. […]

[2] = tested on: passive cutaneous anaphylaxis lesions in the rat; experiment: Rat Passive Cutaneous Anaphylaxis Assay (PCA); format: in vivo, rat (male Wistar strain); conditions: for Lesion Area (Low IgE): IgE 25 ng/site; for Lesion Area (Low IgE) / Lesion Area (High IgE): mean ± SD; for Lesion Area (High IgE): IgE 50 ng/site
Description: Solutions made by dissolving 0.50 g in 100 ml of normal saline. Mouse monoclonal IgE (ICN Biochemicals) clone SPE-7 directed against DNP is subdivided into 50 ul aliquots and stored at -70° C. DNP-ovalbumin is made by reacting DNP sulfonic acid with ovalbumin dissolved in saline overnight at room temperature. The resulting solution is dialyzed extensively at 4 C to remove unreacted DNPsulfonic acid and stored as 1 mL aliquots of 100 mg/ml at -70° C. Male Wistar strain rats, certified viral free, weighing 250-300 g are obtained from Hilltop Laboratory Animals and housed, in accordance with AALAC standards, on site for at least one week before use. Forty-eight hours before challenge the rats are shaved on the dorsal surfaces and returned to the cages. Twenty-four hours before challenge the rats are given intradermal injections of 0.1 mL, one on each flank, of saline containing IgE at concentrations ranging from 1000 to 250 ng/mL. These injections give a local dose of 100 to 25 ng IgE. The IgE binds to specific receptors on mast cells in the skin. […] To the Evan's blue dye is added sufficient DNP-ovalbumin to make a 1 mg/ml solution. This allergen containing dye is injected intravenously via a tail vein into the rats at 10 ml/Kg. The Evans' blue binds to plasma albumin and remains in the vascular space under conditions of normal capillary permeability. The allergen, which can diffuse into the extravascular space, binds to the IgE on the surface of the cutaneous mast cells and initiates the immediate hypersensitivity response which leads to the release of histamine by intracellular granules of the mast cell. The histamine causes an increase in capillary permeability which allows plasma proteins including the dye tagged albumin to diffuse into the extracellular space resulting in a blue spot in the skin. The size of the lesion is proportional to the amounts of mediators released. This process reaches an optimum in 30 minutes. Thirty minutes after challenge the rats are euthanized by CO2. The skin is reflected from the back and the lesion areas estimated as the product of the largest diameter of the bluespot and the diameter perpendicular to it. A compound which is a mediator release inhibitor will reduce the spot area. The effectiveness of the compounds is determined by Analysis of Variance of the lesion areas grouped by IgE dose and compound. Compounds are considered active at the P<0.05 level. Table II contains the results of the experiments expressed as the areas of the lesions in mm^2. The control lesions for these experiments are also listed. Because more than one compound at a time is tested, some of the control values are repeated in the table. Table III contains the data expressed as a % of the appropriate control.

[3] = 2.0 mg/kg PO 2 hrs, hydrochloride

IC50 [1]: 0.1 ± 0.01 µM
SMILES: Cl.c1cc(Nc2nccc(-c3cccs3)n2)cc(OCCn2ccnc2)c1 [Compound 1, N-[3-[2-(1H-Imidazol-1-yl)ethoxy]phenyl]-4-(2-thienyl)-2-pyrimidinamine hydrochloride]
Lesion Area (Low IgE) ([2]; 0.125 mg/kg PO 2 hrs): 87 ± 16 mm^2
Lesion Area (High IgE) ([2]; 0.125 mg/kg PO 2 hrs): 132 ± 20 mm^2
Lesion Area (Low IgE) ([2]; 0.25 mg/kg PO 2 hrs): 92 ± 13 mm^2
Lesion Area (High IgE) ([2]; 0.25 mg/kg PO 2 hrs): 127 ± 19 mm^2
Lesion Area (High IgE) ([2]; 1.0 mg/kg PO 2 hrs, hydrochloride): 115 ± 14 mm^2 and 100 ± 20 mm^2 and 129 ± 26 mm^2
Lesion Area (Low IgE) ([2]; 1.5 mg/kg PO 2 hrs): 56 ± 22 mm^2
Lesion Area (High IgE) ([2]; 1.5 mg/kg PO 2 hrs): 128 ± 43 mm^2
% CONTROL (lesion area) ([2]; 1.5 mg/kg PO @ 2 hrs): 41.8%
Lesion Area (Low IgE) [2, 3]: 71 ± 20 mm^2 and 76 ± 14 mm^2
Lesion Area (High IgE) [2, 3]: 103 ± 5 mm^2 and 119 ± 19 mm^2
% CONTROL (lesion area) ([2]; 2 mg/kg PO @ 2 hrs, hydrochloride): 56.8% and 43.3%
Lesion Area (Low IgE) ([2]; 2.5 mg/kg PO 2 hrs): 8 ± 15 mm^2
Lesion Area (High IgE) ([2]; 2.5 mg/kg PO 2 hrs): 17 ± 30 mm^2
% CONTROL (lesion area) ([2]; 2.5 mg/kg PO @ 2 hrs): 15.0%
